Laboratory results reported in the supplement of paper PMC9663587.

How the values were obtained:
[1] = compound: CC(=O)c1c(C)c2cnc(Nc3ccc(N4CCNCC4)cn3)nc2n(C2CCCC2)c1=O
Volasertib/BI6727 = compound: CC[C@@H]1C(=O)N(C)c2cnc(Nc3ccc(C(=O)N[C@H]4CC[C@H](N5CCN(CC6CC6)CC5)CC4)cc3OC)nc2N1C(C)C [Volasertib/BI6727]
THZ531 [2] = compound: T1, CN(C)C/C=C/C(=O)Nc1ccc(C(=O)N2CCC[C@@H](Nc3ncc(Cl)c(-c4c[nH]c5ccccc45)n3)C2)cc1 [THZ531]
Dasatinib = compound: Cc1nc(Nc2ncc(C(=O)Nc3c(C)cccc3Cl)s2)cc(N2CCN(CCO)CC2)n1 [Dasatinib]
[3] = compound: CO[C@@H](C)Cn1c(=O)n(C)c2cnc3ccc(-c4cncc(C(C)(C)O)c4)cc3c21
Doxorubicin = compound: COc1cccc2c1C(=O)c1c(O)c3c(c(O)c1C2=O)C[C@@](O)(C(=O)CO)C[C@@H]3O[C@H]1C[C@H](N)[C@H](O)[C@H](C)O1 [Doxorubicin]
BSJ-01-175 = compound: CN(C)C/C=C/C(=O)Nc1ccc(O[C@@H]2CCC[C@@H](Nc3ncc(Cl)c(-c4c[nH]c5ccccc45)n3)C2)cc1 [BSJ-01-175]
Rucaparib = compound: CNCc1ccc(-c2[nH]c3cc(F)cc4c3c2CCNC4=O)cc1 [Rucaparib]
INK128/MLN0128 = compound: CC(C)n1nc(-c2ccc3oc(N)nc3c2)c2c(N)ncnc21 [INK128/MLN0128]
[4] = compound: CC(=O)Nc1cccc(-n2c(=O)n(C3CC3)c(=O)c3c(Nc4ccc(I)cc4F)n(C)c(=O)c(C)c32)c1
AZD2014 = compound: CNC(=O)c1cccc(-c2ccc3c(N4CCOC[C@@H]4C)nc(N4CCOC[C@@H]4C)nc3n2)c1 [AZD2014]
Vorinostat = compound: O=C(CCCCCCC(=O)Nc1ccccc1)NO [Vorinostat]
Ceritinib/LDK378 = compound: Cc1cc(Nc2ncc(Cl)c(Nc3ccccc3S(=O)(=O)C(C)C)n2)c(OC(C)C)cc1C1CCNCC1 [Ceritinib/LDK378]
Taselisib/GDC0032 = compound: Cc1nc(-c2cn3c(n2)-c2ccc(-c4cnn(C(C)(C)C(N)=O)c4)cc2OCC3)n(C(C)C)n1 [Taselisib/GDC0032]
BSJ-03-123 [5] = compound: T2, CC(=O)c1c(C)c2cnc(Nc3ccc(N4CCN(CCOCCOCCOCCNC(=O)COc5cccc6c5C(=O)N(C5CCC(=O)NC5=O)C6=O)CC4)cn3)nc2n(C2CCCC2)c1=O [BSJ-03-123]
Neratinib/HKI272 [6] = compound: T3, CCOc1cc2ncc(C#N)c(Nc3ccc(OCc4ccccn4)c(Cl)c3)c2cc1NC(=O)/C=C/CN(C)C [Neratinib/HKI272]
THZ531 [7] = compound: T1, THZ531; assay: increase in dead-cell fraction, 72 h; higher = more death;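 note: breast cancer cell lines in 384-well plates, stained with Hoechst plus LIVE/DEAD far red dye and imaged, cells above an LDR intensity threshold counted dead, Hoechst-negative corpses included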
THZ1 = compound: CN(C)C/C=C/C(=O)Nc1ccc(C(=O)Nc2cccc(Nc3ncc(Cl)c(-c4c[nH]c5ccccc45)n3)c2)cc1 [THZ1]; assay: as above
YKL-5-124 = compound: C=CC(=O)Nc1ccc(C(=O)Nc2[nH]nc3c2CN(C(=O)N[C@H](CN(C)C)c2ccccc2)C3(C)C)cc1 [YKL-5-124]; assay: as above
[8] = compound: CCc1cnn2c(NCc3ccc[n+]([O-])c3)cc(N3CCCC[C@H]3CCO)nc12; assay: as above
BSJ-03-123 [9] = compound: T2, BSJ-03-123; assay: as above
Neratinib/HKI272 [10] = compound: T3, Neratinib/HKI272; assay: as above
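Throughout, for GR50, 72 h: breast cancer and non-malignant breast epithelial cell lines, Deep Dye Drop or Dye Drop imaging, nine half-log doses, GR normalized to time-zero plates and DMSO-only controls.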

MCF7
GR50, 72 h [1]: 0.075 µM
GR50, 72 h (Volasertib/BI6727): 0.00287 µM
GR50, 72 h (THZ531 [2]): 0.061 µM
GR50, 72 h (Dasatinib): 0.0694 µM
GR50, 72 h [3]: < 0.001 µM
GR50, 72 h (Doxorubicin): 0.0161 µM
GR50, 72 h (BSJ-01-175): 0.006 µM
GR50, 72 h (Rucaparib): > 10 µM
GR50, 72 h (INK128/MLN0128): 0.00298 µM
GR50, 72 h [4]: > 1 µM
GR50, 72 h (AZD2014): < 0.001 µM
GR50, 72 h (Vorinostat): 0.542 µM
GR50, 72 h (Ceritinib/LDK378): 0.344 µM
GR50, 72 h (Taselisib/GDC0032): 0.00836 µM
GR50, 72 h (BSJ-03-123 [5]): 1.42 µM
GR50, 72 h (Neratinib/HKI272 [6]): 1.26 µM
increase in dead-cell fraction (THZ531 [7]; 0.0001 µM): 0.0003
increase in dead-cell fraction (THZ531 [7]; 0.0003162 µM): -0.0011
increase in dead-cell fraction (THZ531 [7]; 0.001 µM): 0.0038
increase in dead-cell fraction (THZ531 [7]; 0.003162 µM): -0.0013
increase in dead-cell fraction (THZ531 [7]; 0.01 µM): 0.0059
increase in dead-cell fraction (THZ531 [7]; 0.03162 µM): 0.0084
increase in dead-cell fraction (THZ531 [7]; 0.1 µM): 0.125
increase in dead-cell fraction (THZ531 [7]; 0.3162 µM): 0.185
increase in dead-cell fraction (THZ531 [7]; 1 µM): 0.355
increase in dead-cell fraction (THZ1; 0.0001 µM): -0.0005
increase in dead-cell fraction (THZ1; 0.0003162 µM): 0.0028
increase in dead-cell fraction (THZ1; 0.001 µM): 0.0017
increase in dead-cell fraction (THZ1; 0.003162 µM): 0.0005
increase in dead-cell fraction (THZ1; 0.01 µM): 0.0078
increase in dead-cell fraction (THZ1; 0.03162 µM): 0.0606
increase in dead-cell fraction (THZ1; 0.1 µM): 0.196
increase in dead-cell fraction (THZ1; 0.3162 µM): 0.176
increase in dead-cell fraction (THZ1; 1 µM): 0.338
increase in dead-cell fraction (YKL-5-124; 0.001 µM): 0.0137
increase in dead-cell fraction (YKL-5-124; 0.003162 µM): 0.0144
increase in dead-cell fraction (YKL-5-124; 0.01 µM): 0.0219
increase in dead-cell fraction (YKL-5-124; 0.03162 µM): 0.0284
increase in dead-cell fraction (YKL-5-124; 0.1 µM): 0.0263
increase in dead-cell fraction (YKL-5-124; 0.3162 µM): 0.0411
increase in dead-cell fraction (YKL-5-124; 1 µM): 0.0356
increase in dead-cell fraction (YKL-5-124; 3.162 µM): 0.039
increase in dead-cell fraction (YKL-5-124; 10 µM): 0.203
increase in dead-cell fraction ([8]; 0.0001 µM): 0.0003
increase in dead-cell fraction ([8]; 0.0003162 µM): -0.0006
increase in dead-cell fraction ([8]; 0.001 µM): -0.0004
increase in dead-cell fraction ([8]; 0.003162 µM): 0.0012
increase in dead-cell fraction ([8]; 0.01 µM): 0.0757
increase in dead-cell fraction ([8]; 0.03162 µM): 0.319
increase in dead-cell fraction ([8]; 0.1 µM): 0.272
increase in dead-cell fraction ([8]; 0.3162 µM): 0.225
increase in dead-cell fraction ([8]; 1 µM): 0.229
increase in dead-cell fraction (BSJ-03-123 [9]; 0.001 µM): 0.0009
increase in dead-cell fraction (BSJ-03-123 [9]; 0.003162 µM): 0.0021
increase in dead-cell fraction (BSJ-03-123 [9]; 0.01 µM): 0.0018
increase in dead-cell fraction (BSJ-03-123 [9]; 0.03162 µM): 0.0017
increase in dead-cell fraction (BSJ-03-123 [9]; 0.1 µM): 0.0038
increase in dead-cell fraction (BSJ-03-123 [9]; 0.3162 µM): 0.0034
increase in dead-cell fraction (BSJ-03-123 [9]; 1 µM): 0.008
increase in dead-cell fraction (BSJ-03-123 [9]; 3.162 µM): 0.0042
increase in dead-cell fraction (BSJ-03-123 [9]; 10 µM): 0.274
increase in dead-cell fraction (Neratinib/HKI272 [10]; 0.0003162 µM): 0
increase in dead-cell fraction (Neratinib/HKI272 [10]; 0.001 µM): 0.0036
increase in dead-cell fraction (Neratinib/HKI272 [10]; 0.003162 µM): 0.0018
increase in dead-cell fraction (Neratinib/HKI272 [10]; 0.01 µM): 0.0034
increase in dead-cell fraction (Neratinib/HKI272 [10]; 0.03162 µM): 0.0035
increase in dead-cell fraction (Neratinib/HKI272 [10]; 0.1 µM): 0.0017
increase in dead-cell fraction (Neratinib/HKI272 [10]; 0.3162 µM): 0.0089
increase in dead-cell fraction (Neratinib/HKI272 [10]; 1 µM): 0.0125
increase in dead-cell fraction (Neratinib/HKI272 [10]; 3.162 µM): 0.164

SUM185PE
GR50, 72 h [1]: > 3.16 µM
GR50, 72 h (Volasertib/BI6727): 0.0238 µM
GR50, 72 h (THZ531 [2]): 0.136 µM
GR50, 72 h (Dasatinib): 0.0196 µM
GR50, 72 h [3]: 0.00357 µM
GR50, 72 h (Doxorubicin): > 3.16 µM
GR50, 72 h (BSJ-01-175): 0.103 µM
GR50, 72 h (Rucaparib): > 10 µM
GR50, 72 h (INK128/MLN0128): 0.00558 µM
GR50, 72 h [4]: > 1 µM
GR50, 72 h (AZD2014): 0.00637 µM
GR50, 72 h (Vorinostat): 6.86 µM
GR50, 72 h (Ceritinib/LDK378): 0.983 µM
GR50, 72 h (Taselisib/GDC0032): 0.00177 µM
GR50, 72 h (BSJ-03-123 [5]): > 10 µM
GR50, 72 h (Neratinib/HKI272 [6]): 0.537 µM
increase in dead-cell fraction (THZ531 [7]; 0.0001 µM): 0.0141
increase in dead-cell fraction (THZ531 [7]; 0.0003162 µM): 0.0051
increase in dead-cell fraction (THZ531 [7]; 0.001 µM): -0.0125
increase in dead-cell fraction (THZ531 [7]; 0.003162 µM): -0.0076
increase in dead-cell fraction (THZ531 [7]; 0.01 µM): -0.0143
increase in dead-cell fraction (THZ531 [7]; 0.03162 µM): -0.0254
increase in dead-cell fraction (THZ531 [7]; 0.1 µM): 0.0083
increase in dead-cell fraction (THZ531 [7]; 0.3162 µM): 0.278
increase in dead-cell fraction (THZ531 [7]; 1 µM): 0.139
increase in dead-cell fraction (THZ1; 0.0001 µM): -0.0025
increase in dead-cell fraction (THZ1; 0.0003162 µM): 0.0107
increase in dead-cell fraction (THZ1; 0.001 µM): -0.0054
increase in dead-cell fraction (THZ1; 0.003162 µM): 0.0295
increase in dead-cell fraction (THZ1; 0.01 µM): 0.0559
increase in dead-cell fraction (THZ1; 0.03162 µM): 0.216
increase in dead-cell fraction (THZ1; 0.1 µM): 0.224
increase in dead-cell fraction (THZ1; 0.3162 µM): 0.154
increase in dead-cell fraction (THZ1; 1 µM): 0.183
increase in dead-cell fraction (YKL-5-124; 0.001 µM): 0.0052
increase in dead-cell fraction (YKL-5-124; 0.003162 µM): 0.0479
increase in dead-cell fraction (YKL-5-124; 0.01 µM): 0.037
increase in dead-cell fraction (YKL-5-124; 0.03162 µM): 0.0467
increase in dead-cell fraction (YKL-5-124; 0.1 µM): 0.0495
increase in dead-cell fraction (YKL-5-124; 0.3162 µM): 0.0156
increase in dead-cell fraction (YKL-5-124; 1 µM): 0.067
increase in dead-cell fraction (YKL-5-124; 3.162 µM): 0.121
increase in dead-cell fraction (YKL-5-124; 10 µM): 0.148
increase in dead-cell fraction ([8]; 0.0001 µM): -0.003
increase in dead-cell fraction ([8]; 0.0003162 µM): 0.0089
increase in dead-cell fraction ([8]; 0.001 µM): -0.0107
increase in dead-cell fraction ([8]; 0.003162 µM): 0.0052
increase in dead-cell fraction ([8]; 0.01 µM): 0.0137
increase in dead-cell fraction ([8]; 0.03162 µM): 0.0687
increase in dead-cell fraction ([8]; 0.1 µM): 0.0528
increase in dead-cell fraction ([8]; 0.3162 µM): 0.0636
increase in dead-cell fraction ([8]; 1 µM): 0.0458
increase in dead-cell fraction (BSJ-03-123 [9]; 0.001 µM): -0.0024
increase in dead-cell fraction (BSJ-03-123 [9]; 0.003162 µM): -0.0357
increase in dead-cell fraction (BSJ-03-123 [9]; 0.01 µM): 0.0044
increase in dead-cell fraction (BSJ-03-123 [9]; 0.03162 µM): 0.0319
increase in dead-cell fraction (BSJ-03-123 [9]; 0.1 µM): 0.0144
increase in dead-cell fraction (BSJ-03-123 [9]; 0.3162 µM): -0.0016
increase in dead-cell fraction (BSJ-03-123 [9]; 1 µM): 0.0213
increase in dead-cell fraction (BSJ-03-123 [9]; 3.162 µM): 0.0264
increase in dead-cell fraction (BSJ-03-123 [9]; 10 µM): 0.0146
increase in dead-cell fraction (Neratinib/HKI272 [10]; 0.0003162 µM): 0.0036
increase in dead-cell fraction (Neratinib/HKI272 [10]; 0.001 µM): -0.0035
increase in dead-cell fraction (Neratinib/HKI272 [10]; 0.003162 µM): 0.0085
increase in dead-cell fraction (Neratinib/HKI272 [10]; 0.01 µM): 0.0152
increase in dead-cell fraction (Neratinib/HKI272 [10]; 0.03162 µM): 0.0297
increase in dead-cell fraction (Neratinib/HKI272 [10]; 0.1 µM): 0.0255
increase in dead-cell fraction (Neratinib/HKI272 [10]; 0.3162 µM): 0.0574
increase in dead-cell fraction (Neratinib/HKI272 [10]; 1 µM): 0.068
increase in dead-cell fraction (Neratinib/HKI272 [10]; 3.162 µM): 0.0933
